Earlier results, collected in patent US8372995B2, “Crystalline solid forms of tigecycline and methods of preparing same” (priority 2005, dated 2013).

Tests used:
[1] = system: penicillin-resistant Streptococcus pneumoniae
[2] = system: methicillin-resistant Staphylococcus aureus
[3] = system: vancomycin-resistant enterococci
[4] = system: organisms carrying either of the two major forms of tetracycline resistance: efflux and ribosomal protection
[5] = oral

## CN(C)c1cc(NC(=O)CNC(C)(C)C)c(O)c2c1C[C@H]1C[C@H]3[C@H](N(C)C)C(O)=C(C(N)=O)C(=O)[C@@]3(O)C(O)=C1C2=O [Tigecycline]
[1]
  activity against penicillin-resistant Streptococcus pneumoniae: active
[2]
  activity against methicillin-resistant Staphylococcus aureus: active
[3]
  activity against vancomycin-resistant enterococci: active
[4]
  activity against organisms carrying tetracycline resistance (efflux, ribosomal protection): active
[5]
  bioavailability when given orally: generally poor
